Entries after “also recorded” stand apart in the source; their conditions may differ. Starred links: 1 amine or outer side, 2 acyl side, 3 side chain; linkers in the order of their positions; H or OH if unused. Positions of bridges follow the written chain, without caps; N, C: chain ends. Non-standard residues stand in square brackets, D forms with d. Residues, ends and D or L forms follow the SMILES beside them. ξ: configuration not given here. dPhe(4-Cl) = N[C@H](Cc1ccc(Cl)cc1)C(=O)O; 2Nal = N[C@@H](Cc1ccc2ccccc2c1)C(=O)O; Suc = O=C(CCC(=O)[*:2])[*:1]; ξE = NC(CCC(=O)O)C(=O)O; ξDab = NCCC(N)C(=O)O; ξK = NCCCCC(N)C(=O)O; ξDap = NCC(N)C(=O)O; Ava = NCCCCC(=O)O; GABA = NCCCC(=O)O; βAla = NCCC(=O)O
Assays:
hMC-3R [1] = biological target: T1, hMC-3R (Homo sapiens, UniProt P41968); test: cAMP assay in CHO cells expressing a human melanocortin receptor; format: cell-based; details: 45 minutes at room temperature
T1 construct: expressed in transfected cells; host or cells: Chinese hamster ovary (CHO) cells
T1 sequence (P41968 whole entry): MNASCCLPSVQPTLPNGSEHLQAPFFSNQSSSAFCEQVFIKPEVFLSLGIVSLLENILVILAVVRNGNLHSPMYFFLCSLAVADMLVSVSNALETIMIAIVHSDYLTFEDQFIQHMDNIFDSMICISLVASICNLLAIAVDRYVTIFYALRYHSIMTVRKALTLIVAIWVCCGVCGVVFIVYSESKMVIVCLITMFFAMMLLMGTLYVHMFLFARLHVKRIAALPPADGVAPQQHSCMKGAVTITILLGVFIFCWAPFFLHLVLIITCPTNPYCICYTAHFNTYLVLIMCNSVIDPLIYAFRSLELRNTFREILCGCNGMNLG
Experimental: (§1) Chinese hamster ovary cells expressing a human melanocortin receptor were rinsed with calcium- and magnesium-free PBS (Life Technologies), and detached from the tissue culture flasks by 5-minutes incubation with enzyme-free dissociation buffer (S-014-B, Specialty Media). Cells were collected by centrifugation and resuspended in Earle's balanced salt solution (Life Technologies) with addition of 10 mM 4-(2-hydroxyethyl)-1-piperazineethanesulfonic acid (Hepes) buffer, pH 7.5, 5 mM MgCl2, 1 mM glutamine, and 1 mg/ml bovine serum albumin to concentration of 1-5×10^6 cells/ml. Subsequently, cells were counted and the cell suspension was treated with the phosphodiesterase inhibitor 3-isobutyl-1-methylxanthine (to concentration of 0.6 mM).
(§2) A test compound was dissolved in dimethyl sulfoxide (DMSO, 10^−3 to 10^−8 M), diluted with buffer, and 0.1 volume of the solution was added to 0.9 volumes of the cell suspension (1 to 5×10^5 cells); final concentration of DMSO was 1%. After 45 minutes at room temperature, cells were lysed by incubation at 100° C. for 5 minutes to release accumulated cAMP. Accumulation of cAMP was measured in an aliquot of the cell lysate with the Amersham (Arlington Heights, Ill.) cAMP detection assay kit (RPA556). The amount of cAMP produced in response to a tested compound was compared to the amount of cAMP produced in response to α-MSH, defined as a 100% agonist. All active peptides were characterized in three independent experiments.

hMC-4R [2] = biological target: T2, hMC-4R (Homo sapiens, UniProt P32245); test: as above; format: cell-based; details: 45 minutes at room temperature
T2 construct: expressed in transfected cells; host or cells: Chinese hamster ovary (CHO) cells
T2 sequence (P32245 whole entry): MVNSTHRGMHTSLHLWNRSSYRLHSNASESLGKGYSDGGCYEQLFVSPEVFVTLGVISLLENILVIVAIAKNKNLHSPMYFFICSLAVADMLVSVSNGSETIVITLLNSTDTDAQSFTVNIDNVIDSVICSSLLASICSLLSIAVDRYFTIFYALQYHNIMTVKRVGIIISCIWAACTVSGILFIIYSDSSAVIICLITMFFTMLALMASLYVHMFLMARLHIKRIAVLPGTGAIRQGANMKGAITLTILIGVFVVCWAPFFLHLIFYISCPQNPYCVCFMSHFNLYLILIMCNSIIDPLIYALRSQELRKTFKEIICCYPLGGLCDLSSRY
Experimental: as §1, §2

hMC-5R [3] = biological target: T3, hMC-5R (Homo sapiens, UniProt P33032); test: as above; format: cell-based; details: for EC50: CHO cells, 45 minutes at room temperature; for CAMP Assay hMC-5R, % activation at a single concentration: @ 5 (concentration unit not given), relative to α-MSH defined as a 100% agonist
T3 construct: expressed in transfected cells; host or cells: Chinese hamster ovary (CHO) cells
T3 sequence (P33032 whole entry): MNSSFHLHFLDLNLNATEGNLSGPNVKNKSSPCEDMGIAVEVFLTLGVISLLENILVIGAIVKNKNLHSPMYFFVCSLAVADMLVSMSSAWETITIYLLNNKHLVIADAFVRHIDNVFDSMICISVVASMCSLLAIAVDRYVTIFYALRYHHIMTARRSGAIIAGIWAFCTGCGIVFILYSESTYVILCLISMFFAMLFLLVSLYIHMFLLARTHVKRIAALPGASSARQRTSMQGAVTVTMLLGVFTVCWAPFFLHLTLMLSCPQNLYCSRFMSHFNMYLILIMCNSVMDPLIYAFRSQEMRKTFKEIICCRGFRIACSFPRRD
Experimental: as §1, §2

hMC-3R [4] = biological target: T1, hMC-3R; test: Competitive binding assay, [125I]-NDP-α-MSH, CHO cell membranes; details: 200 pM [125I]-NDP-α-MSH, read-out: Binding Assay IC50 hMC-3R
Experimental: (§3) The peptides of the present invention were evaluated for agonist activity in receptor binding assay. Crude membrane preparations were obtained from Chinese hamster ovary cells expressing human MC3, MC4, and MC5 receptors. Cells were rinsed with phosphate-buffered saline (PBS) lacking CaCl2 or MgCl2 (Life Technologies, Gaithersburg, Md., USA), and then detached with enzyme-free dissociation media (Specialty Media, Lavellette, N.J., USA). Cells were pelleted at 2800×g for 10 minutes and resuspended in membrane buffer (20 mM Tris, pH 7.2, 5 mM ethylenediaminetetraacetic acid) with 5 μg/ml leupeptin, 5 μg/ml aprotinin, 40 μg/ml bacitracin, and 25 μg/ml pefabloc (Boehringer Mannheim). The cells were […] with 10 strokes by using a motor-driven Teflon-coated pestle in a glass homogenizer at low speed. The resulting cell suspension was centrifuged at 4100×g, 4° C., for 20 minutes. The pellet was resuspended in fresh membrane buffer with protease inhibitors, aliquoted, snap-frozen in liquid nitrogen, and stored at −80° C. The resulting crude membranes were titrated to determine the optimal level necessary for performing binding studies.
(§4) Binding reactions (total volume=250 μl) contained MBB (50 mM Tris, pH 7.2, 2 mM CaCl2, 1 mM MgCl2), 0.1% bovine serum albumin, crude membranes prepared from cells expressing human MC3, MC4, or MC5 receptor, 200 pM of [125I]-NDP-α-MSH (Amersham, Arlington Heighs, Ill., USA), and increasing concentrations of unlabeled test compounds dissolved in dimethylsulfoxide (final concentration=2%). Reactions were incubated for 1 hour without shaking and then filtered through 96-well filter plates (Packard), presoaked in 1% polyethyleneimine. Filters were washed 3 times with TNE buffer (50 mM Tris, pH 7.4, 5 mM ethylene-diaminetetraacetic acid, 150 mM NaCl), dried and counted by using Microscint-20 in a Topcount scintillation counter (Packard). Nonspecific binding was determined in the presence of 2 μm of unlabeled NDP-α-MSH (Peninsula Laboratories). Active peptides were evaluated in three independent experiments.

hMC-4R [5] = biological target: T2, hMC-4R; test: as above; details: 200 pM [125I]-NDP-α-MSH, read-out: Binding Assay IC50 hMC-4R
Experimental: as §3, §4

hMC-5R [6] = biological target: T3, hMC-5R; test: as above; details: 200 pM [125I]-NDP-α-MSH, read-out: Binding Assay IC50 hMC-5R
Experimental: as §3, §4

[7] = rats, cited from earlier work; for Food intake: intraventricular administration / injection

Compound | EC50 (hMC-3R [1]) | EC50 (hMC-4R [2]) | EC50 (hMC-5R [3]) | IC50 (hMC-3R [4]) | IC50 (hMC-4R [5]) | IC50 (hMC-5R [6]) | CAMP Assay hMC-5R, % activation at a single concentration (hMC-5R [3]) | Food intake [7] | Body weight ([7]; intraventricular administration)
N=C(N)NCCC[C@@H]1NC(=O)[C@@H](Cc2ccccc2)NC(=O)[C@H](Cc2c[nH]cn2)NC(=O)CCC(=O)NCCCCC(C(N)=O)NC(=O)[C@H](Cc2c[nH]c3ccccc23)NC1=O (some centres unmarked) [Example 1] (H[dF]RW[ξK]-NH2; linker N-5 via Suc) | 110 nM | 3.3 nM | 1180 nM | 418 nM | 25 nM | 3100 nM | – | – | –
N=C(N)NCCC[C@@H]1NC(=O)[C@@H](Cc2ccccc2)NC(=O)[C@H](Cc2c[nH]cn2)NC(=O)CCC(=O)NCCC(C(N)=O)NC(=O)[C@H](Cc2c[nH]c3ccccc23)NC1=O (some centres unmarked) [Example 2] (H[dF]RW[ξDab]-NH2; linker N-5 via Suc) | 240 nM | 2.9 nM | 2200 nM | 1800 nM | 35 nM | 7200 nM | – | – | –
N=C(N)NCCC[C@@H]1NC(=O)[C@@H](Cc2ccccc2)NC(=O)[C@H](Cc2c[nH]cn2)NC(=O)CCC(=O)NCC(C(N)=O)NC(=O)[C@H](Cc2c[nH]c3ccccc23)NC1=O (some centres unmarked) [Example 3] (H[dF]RW[ξDap]-NH2; linker N-5 via Suc) | 590 nM | 33 nM | – | 1600 nM | 71 nM | 3600 nM | 12% @ 5 | – | –
N=C(N)NCCC[C@@H]1NC(=O)[C@@H](Cc2ccc(Cl)cc2)NC(=O)[C@H](Cc2c[nH]cn2)NC(=O)CCC(=O)NCCCCC(C(N)=O)NC(=O)[C@H](Cc2c[nH]c3ccccc23)NC1=O (some centres unmarked) [Example 4] (H[dPhe(4-Cl)]RW[ξK]-NH2; linker N-5 via Suc) | 40 nM | 0.74 nM | 170 nM | 17 nM | 1.7 nM | 92 nM | – | – | –
N=C(N)NCCC[C@@H]1NC(=O)[C@@H](Cc2ccccc2)NC(=O)[C@H](Cc2c[nH]cn2)NC(=O)CCC(=O)NCCCCC(C(N)=O)NC(=O)[C@H](Cc2ccc3ccccc3c2)NC1=O (some centres unmarked) [Example 5] (H[dF]R[2Nal][ξK]-NH2; linker N-5 via Suc) | 360 nM | 3.7 nM | > 5000 nM | 440 nM | 13 nM | > 20000 nM | – | – | –
N=C(N)NCCC[C@@H]1NC(=O)[C@@H](Cc2ccccc2)NC(=O)[C@H](Cc2c[nH]cn2)NC(=O)CCCCNC(=O)CCC(C(N)=O)NC(=O)[C@H](Cc2c[nH]c3ccccc23)NC1=O (some centres unmarked) [Example 6] ([Ava]H[dF]RW[ξE]-NH2; lactam N-6) | 190 nM | 2.7 nM | 1900 nM | 580 nM | 12 nM | 9000 nM | – | – | –
N=C(N)NCCC[C@@H]1NC(=O)[C@@H](Cc2ccccc2)NC(=O)[C@H](Cc2c[nH]cn2)NC(=O)CCCNC(=O)CCC(C(N)=O)NC(=O)[C@H](Cc2c[nH]c3ccccc23)NC1=O (some centres unmarked) [Example 7] ([GABA]H[dF]RW[ξE]-NH2; lactam N-6) | 310 nM | 5.7 nM | > 5000 nM | 1830 nM | 41 nM | > 5000 nM | – | – | –
N=C(N)NCCC[C@@H]1NC(=O)[C@@H](Cc2ccccc2)NC(=O)[C@H](Cc2c[nH]cn2)NC(=O)CCNC(=O)CCC(C(N)=O)NC(=O)[C@H](Cc2c[nH]c3ccccc23)NC1=O (some centres unmarked) [Example 8] ([βAla]H[dF]RW[ξE]-NH2; lactam N-6) | – | – | – | 450 nM | – | 5050 nM | – | – | –
N=C(N)NCCC[C@@H]1NC(=O)[C@@H](Cc2ccccc2)NC(=O)[C@H](Cc2c[nH]cn2)NC(=O)CNC(=O)CCC(C(N)=O)NC(=O)[C@H](Cc2c[nH]c3ccccc23)NC1=O (some centres unmarked) [Example 9] (GH[dF]RW[ξE]-NH2; lactam N-6) | 2200 nM | 35 nM | – | > 1000 nM | 290 nM | > 1000 nM | 15% @ 5 | – | –
MTII | – | – | – | – | – | – | – | reduced food intake | –
SHU9119 | – | – | – | – | – | – | – | increased food intake; also recorded: stimulates food intake | increased food intake and body weight

Reference: patent publication US6960646B2, “Cyclic peptides as potent and selective melanocortin-4 receptors agonists” (Merck & Co., Inc., priority 2001, dated 2005)
